Reference: ChEMBL document CHEMBL1145536, “Low-oxygen-recovery assay for high-throughput screening of compounds against nonreplicating Mycobacterium tuberculosis” (2007)
Converted amounts (≈) assume the structure as drawn.

How the values were obtained:
Assay type in all cases: functional
[1] = test system: Mycobacterium tuberculosis; assay: Antimicrobial activity against non replicating persistence Mycobacterium tuberculosis H37Rv in aerobic condition assessed by relative light units after 7 days; settings: 168 h
[2] = test system: Mycobacterium tuberculosis; assay: Antimicrobial activity against non replicating persistence Mycobacterium tuberculosis H37Rv in aerobic condition assessed as bacterial density after 7 days; settings: 168 h
[3] = test system: Mycobacterium tuberculosis; assay: Antimicrobial activity against non replicating persistence Mycobacterium tuberculosis H37Rv in anaerobic condition assessed as relative light unit after 11 days by LORA assay; settings: 264 h
[4] = test system: Mycobacterium tuberculosis; assay: Antimicrobial activity against non replicating persistence Mycobacterium tuberculosis H37Rv in anaerobic condition assessed as bacterial density after 10 days; settings: 240 h

| Structure (SMILES) | MIC [1] [µM] | MIC [2] [µM] | MIC [3] [µM] | MIC [4] [µM] |
| --- | --- | --- | --- | --- |
| CC[C@H]1OC(=O)[C@H](C)[C@@H](O[C@H]2C[C@@](C)(OC)[C@@H](O)[C@H](C)O2)[C@H](C)[C@@H](O[C@@H]2O[C@H](C)C[C@H](N(C)C)[C@H]2O)[C@](C)(OC)C[C@@H](C)C(=O)[C@H](C)[C@@H]2N(NCCCc3ccnc4ccccc34)C(=O)O[C@@]21C | 0.8 (≈ 0.766 µg/mL) | 1.8 (≈ 1.72 µg/mL) | 2.7 (≈ 2.58 µg/mL) | 1.3 (≈ 1.24 µg/mL) |
| CCC[C@@H]1C[C@@H](C(=O)N[C@H](C(C)Cl)[C@H]2O[C@H](SC)[C@H](O)[C@@H](O)[C@H]2O)N(C)C1 (single isomer, unassigned) [CLINDAMYCIN] | > 128 | > 128 | > 128 | > 128 |
| CN[C@@H]1[C@H](O[C@H]2[C@H](O[C@H]3[C@H](O)[C@@H](O)[C@H](N=C(N)N)[C@@H](O)[C@@H]3N=C(N)N)O[C@@H](C)[C@]2(O)C=O)O[C@@H](CO)[C@H](O)[C@H]1O (stereo in doubt) [STREPTOMYCIN] | 0.5 (≈ 0.291 µg/mL) | ≤ 0.5 | 1.2 (≈ 0.698 µg/mL) | 0.8 (≈ 0.465 µg/mL) |
| NCC[C@H](O)C(=O)N[C@@H]1C[C@H](N)[C@@H](O[C@H]2O[C@H](CN)[C@@H](O)[C@H](O)[C@H]2O)[C@H](O)[C@H]1O[C@H]1O[C@H](CO)[C@@H](O)[C@H](N)[C@H]1O [AMIKACIN] | 0.5 (≈ 0.293 µg/mL) | ≤ 0.5 | ≤ 0.5 | ≤ 0.5 |
| Nc1ccc(C(=O)O)c(O)c1 [AMINOSALICYLIC ACID] | 12.3 (≈ 1.88 µg/mL) | 12.3 (≈ 1.88 µg/mL) | > 128 | > 128 |
| CC(=O)Nc1ccc(/C=N/NC(N)=S)cc1 [AMITHIOZONE] | 14.6 (≈ 3.45 µg/mL) | 31.3 (≈ 7.4 µg/mL) | > 128 | 70.4 (≈ 16.6 µg/mL) |
| O=C(O)c1cn(C2CC2)c2cc(N3CCNCC3)c(F)cc2c1=O [CIPROFLOXACIN] | 1.5 (≈ 0.497 µg/mL) | ≤ 0.5 | > 128 | 33 (≈ 10.9 µg/mL) |
| CC[C@H]1OC(=O)[C@H](C)[C@@H](O[C@H]2C[C@@](C)(OC)[C@@H](O)[C@H](C)O2)[C@H](C)[C@@H](O[C@@H]2O[C@H](C)C[C@H](N(C)C)[C@H]2O)[C@](C)(OC)C[C@@H](C)C(=O)[C@H](C)[C@@H](O)[C@]1(C)O [CLARITHROMYCIN] | 13.4 (≈ 10 µg/mL) | 1.6 (≈ 1.2 µg/mL) | > 128 | 18.7 (≈ 14 µg/mL) |
| CC(C)/N=c1\cc2n(-c3ccc(Cl)cc3)c3ccccc3nc-2cc1Nc1ccc(Cl)cc1 [CLOFAZIMINE] | ≤ 0.5 | 0.7 (≈ 0.331 µg/mL) | 1.5 (≈ 0.71 µg/mL) | 0.8 (≈ 0.379 µg/mL) |
| N[C@@H]1CONC1=O [CYCLOSERINE] | 63.7 (≈ 6.5 µg/mL) | 60.5 (≈ 6.18 µg/mL) | > 128 | 125 (≈ 12.7 µg/mL) |
| CC[C@@H](CO)NCCN[C@@H](CC)CO [ETHAMBUTOL] | 1.8 (≈ 0.368 µg/mL) | 1 (≈ 0.204 µg/mL) | > 128 | > 128 |
| O=C1OCCN1/N=C/c1ccc([N+](=O)[O-])o1 [FURAZOLIDONE] | 77.4 (≈ 17.4 µg/mL) | 1 (≈ 0.225 µg/mL) | 9.7 (≈ 2.18 µg/mL) | 44.8 (≈ 10.1 µg/mL) |
| CC(=O)O[C@H]1C[C@@]2(C)[C@@H](C[C@@H](O)[C@H]3[C@@]4(C)CC[C@@H](O)[C@@H](C)[C@@H]4CC[C@@]32C)/C1=C(\CCC=C(C)C)C(=O)O [FUSIDIC ACID] | 15.8 (≈ 8.16 µg/mL) | 7 (≈ 3.62 µg/mL) | 57.7 (≈ 29.8 µg/mL) | 7.2 (≈ 3.72 µg/mL) |
| NNC(=O)c1ccncc1 [ISONIAZID] | ≤ 0.5 | ≤ 0.5 | > 128 | > 128 |
| CC(=O)N1CCN(c2ccc(OC[C@H]3CO[C@](Cn4ccnc4)(c4ccc(Cl)cc4Cl)O3)cc2)CC1 [KETOCONAZOLE] | 13.9 (≈ 7.39 µg/mL) | 7.6 (≈ 4.04 µg/mL) | 53 (≈ 28.2 µg/mL) | 53.3 (≈ 28.3 µg/mL) |
